The nature of experiment [1]: inhibitors of firefly luciferase expression or activity, dose response, H4 neuroglioma cells, luminescence (AID 1990). Type of experiment: functional, cell-based.
Experiment [2] deals with Streptococcus sp. 'group A'. Nature of the experiment: growth inhibition of control SK(-) GAS strain, dose response, counter-screen for streptokinase expression inhibitor project, luminescence, kanamycin, BacTiterGlo, confirmation (AID 1900). Format: functional, organism-based. In general terms: The purpose of a counterscreen is to sort out artefacts and off-target activity.

Experiment [3] is described as follows: Luminescence Cell-Based Dose Response HTS to Identify Inhibitors of 5'UTR Stem-Loop Driven Prion Protein mRNA Translation in H4 Neuroglioblastoma Cells. [Related pubchem assays: 1827 (Project Summary), 1813 (Primary HTS)]. Type of experiment: functional.
A short description of experiment [4]: inhibitors of SNCA 5'UTR-driven reporter translation, confirmation, H4 neuroglioma cells, luminescence (AID 1988). Type of experiment: functional, cell-based.
The nature of experiment [5]: inhibitors of intracellular T. cruzi replication, confirmation, NIH3T3 host cells, beta-gal luminescence (AID 2044).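 Also: intracellular parasites grown in NIH/3T3 mouse fibroblasts as host cells; luminescent beta-galactosidase reporter signal from transgenic T. cruzi replicating inside host cells; inhibitors lower the luminescence signal.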 Format: functional, cell-based.
Experiment [6] in a line: microbe, parasite or virus in culture. Type of experiment: functional. Particulars: Mycobacterium tuberculosis.
The nature of experiment [7]: cytotoxicity toward NIH3T3 fibroblasts, dose response, counter-screen, cell-based, ATP luminescence, mouse fibroblasts (AID 2010).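 Also: cells exposed to compound for about 90 hours before reading.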 Format: functional.
Experiment [8] has as its system Streptococcus. Kind of experiment: Group A Streptococcus viability loss, dose response, counter-screen for streptokinase expression inhibitor project, luminescence, BacTiterGlo (AID 1915).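 Also: potency for reduction of bacterial viability or growth.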 Format: functional, organism-based.
Experiment [9] is described as follows: Luminescence Cell-Based Dose Retest to Confirm Inhibitors of Cancer Stem Cells. [Related pubchem assays (depositor defined):AID2717, AID2721]. To be noted: Homo sapiens. Type of experiment: functional.
Experiment [10] relates to HEK293. Kind of experiment: inhibitors of LMP1-driven NF-kB reporter, dose response, cell-based, HEK293, luciferase, cherry-pick (AID 588343). Type of experiment: functional. Particulars: Homo sapiens.
The target in experiment [11] is Latent membrane protein 1 (Human herpesvirus 4 (strain B95-8), UniProt P03230). Nature of the experiment: TES1-eGFP NF-kB reporter inhibition versus Tet-On dsRED, dose response, selectivity assay for LMP1 NF-kB inhibitor project, imaging, HEK293T, dual-color eGFP/dsRED, cherry-picks (AID 588398). Type of experiment: functional, cell-based.
The subject of experiment [12] is INS1. Nature of the experiment: beta cell apoptosis inhibitors, cytokine rescue, dose response, luminescence, retest (AID 449756).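 Also: cell death triggered by IL-1 beta plus TNF-alpha plus IFN-gamma mixture; protective hits raise ATP signal compared with cytokine alone wells.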 Type of experiment: functional, cell-based. To be noted: Rattus norvegicus.
Experiment [13] in a line: Shn3 3'UTR reporter inhibitors, dose response, cell-based, Clone20 osteoblasts, firefly luciferase, cherry-picked (AID 624132).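 Also: firefly luciferase luminescence from reporter carrying the Shn3 3'UTR in osteoblasts.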 Type of experiment: functional.
Experiment [14] in a line: HepG2 cell cytotoxicity, dose response, cytotoxicity control for Shn3 inhibitor project, CellTiter-Glo, cherry-picked (AID 624134). Format: functional, cell-based. For orientation: ATP-based viability assays read luminescence as a measure of living cells.
A short description of experiment [15]: control 3'UTR Renilla luciferase suppression, dose response, counter-screen for Shn3 inhibitor project, cell-based, Clone20-Shn3RL, cherry-picked (AID 624133). Format: functional.
In experiment [16] the target is Protein disulfide-isomerase (Homo sapiens, UniProt P07237). Nature of the experiment: PDI inhibitors, insulin aggregation turbidity, dose response, biochemical, absorbance, cherry-picked samples (AID 602350). Type of experiment: functional.
In experiment [17] the test system is CHO. Kind of experiment: cytotoxicity in TLR9-MyD88 CHO cells, dose response, cytotoxicity control for TLR9-MyD88 binding inhibitor project, cell-based, luminescence (AID 588339).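 Also: CHO cells stably coexpressing TLR9 and MyD88 fusions from primary screen; compound exposure lasted 48 hours before viability readout.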 To be noted: Cricetulus griseus. Format: functional, hamster.
Experiment [18] addresses Beta Lactamase (Pseudomonas aeruginosa, UniProt Q932Y6). Kind of experiment: beta-lactamase reporter inhibitor potency, dose response, artefact control for TLR9-MyD88 binding inhibitor project, BLA reporter cells, FRET fluorescence (AID 588341).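 Also: cell based assay in CHO-K1 cells stably expressing beta-lactamase.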 Type of experiment: cell-based.

Broadly, the EC50 is the concentration needed to bring the measured effect to its halfway point. A word on the AC50: it is the concentration at which the activity in the assay is half-maximal. A word on the IC50: it is the concentration at which inhibition is half-maximal.

Molecules are shown by their SMILES. Activity calls are given as the source filed them.

Sequence of Protein disulfide-isomerase (P07237 whole entry, the tested form may be a part): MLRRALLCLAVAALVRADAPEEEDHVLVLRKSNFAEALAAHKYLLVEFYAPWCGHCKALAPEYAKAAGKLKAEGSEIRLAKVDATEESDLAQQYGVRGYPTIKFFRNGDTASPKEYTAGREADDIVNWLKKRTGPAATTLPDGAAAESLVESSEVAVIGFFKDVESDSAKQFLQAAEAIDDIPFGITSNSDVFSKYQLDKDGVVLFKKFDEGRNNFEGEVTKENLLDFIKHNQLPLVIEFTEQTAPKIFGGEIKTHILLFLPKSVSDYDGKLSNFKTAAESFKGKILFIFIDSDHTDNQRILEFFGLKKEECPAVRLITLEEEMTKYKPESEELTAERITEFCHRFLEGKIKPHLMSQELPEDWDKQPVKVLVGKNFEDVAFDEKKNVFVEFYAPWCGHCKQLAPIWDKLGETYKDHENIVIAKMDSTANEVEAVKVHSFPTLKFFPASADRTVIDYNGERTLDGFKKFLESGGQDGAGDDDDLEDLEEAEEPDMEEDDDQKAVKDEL
Sequence of Latent membrane protein 1 (P03230 whole entry): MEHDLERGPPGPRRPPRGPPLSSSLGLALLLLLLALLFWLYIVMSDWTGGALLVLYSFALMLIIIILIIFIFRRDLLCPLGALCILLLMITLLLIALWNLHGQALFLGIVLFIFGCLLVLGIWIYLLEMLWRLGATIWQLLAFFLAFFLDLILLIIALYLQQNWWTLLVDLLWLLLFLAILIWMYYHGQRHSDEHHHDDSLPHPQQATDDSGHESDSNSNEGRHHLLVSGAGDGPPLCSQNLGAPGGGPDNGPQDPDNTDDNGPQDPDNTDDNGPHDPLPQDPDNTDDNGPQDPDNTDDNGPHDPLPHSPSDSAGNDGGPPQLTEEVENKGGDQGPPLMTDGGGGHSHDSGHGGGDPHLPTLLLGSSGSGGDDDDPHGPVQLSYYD
Sequence of Beta Lactamase (Q932Y6 whole entry): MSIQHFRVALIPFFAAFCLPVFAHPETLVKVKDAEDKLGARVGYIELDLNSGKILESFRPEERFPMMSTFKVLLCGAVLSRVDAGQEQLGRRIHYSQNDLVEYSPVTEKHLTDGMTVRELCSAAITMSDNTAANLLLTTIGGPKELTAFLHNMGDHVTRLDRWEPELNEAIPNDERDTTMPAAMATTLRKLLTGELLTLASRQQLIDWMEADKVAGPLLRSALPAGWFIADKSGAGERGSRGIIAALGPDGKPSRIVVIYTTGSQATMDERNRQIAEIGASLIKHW

On to `CCOC(=O)c1cnc(-n2nc(C)cc2C)nc1NNc1cc(C)nc(-c2ccccc2)n1`, for which the half-maximal effective concentration (EC50) is 0.584 µM (active) in experiment [1]; 0.344 µM (active) in experiment [2]; 2.8 µM (active) in experiment [3]; 6.73 µM (active) in [4]; 0.355 µM (active) in [5]; 56.7 µM (active) in experiment [7]. Further, in [8], the half-maximal effective concentration (EC50) was 1.02 µM (active). For the same compound, in [6], the CC50 is 7.39 µM (active). Further, the AC50 in experiment [9] was 1.74 µM (active); in experiment [10] it was 3.4 µM (active); in experiment [11] it was 81.7 µM (active); in experiment [12], 2.14 µM (active); in [13], 3.31 µM (active); in experiment [14] it was 60 µM (active). Further, in experiment [15], the concentration at half-maximal activity (AC50) is 2.29 µM (active).
With `O=C(CCC1CCCCC1)NCCN1C2=NC[C@H](Cc3ccc(O)cc3)N2C[C@H]1Cc1ccc(O)cc1`, the AC50 in [16] was 19.5 µM (active).
On to `O=C1c2cccc3c(N4CCCCC4)ccc(c23)C(=O)N1c1ccccc1O`, for which the IC50 in [17] is > 49.8 µM (inactive); in experiment [18], 7.63 µM (active).
